Test systems include RPMI-8226 leukemia; HCC-2998 colon; HCT-116 colon; K-562 leukemia; DU-145 prostate; MCF7 breast; OVCAR-8 ovarian; HCT-15 colon; RXF 393 renal; SF-295 CNS.
Holding throughout (test): growth of human tumour cells (NCI), 48 h

In PubChem BioAssay (NCI) one finds TGI and GI50 data, which are given here for eight compounds.

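Five concentrations, 48 hours, 96-well plates. GI50 = concentration required for 50% inhibition of growth. At the TGI there is no net growth.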

Take `CCC1C(=O)OCc2c1cc1n(c2=O)Cc2cc3ccccc3nc2-1` (stereo not given): the TGI in the assay on RPMI-8226 leukemia is > 100 µM; in the assay with HCC-2998 colon, > 100 µM; in the assay with HCT-116 colon, > 100 µM; with K-562 leukemia, > 100 µM; in the assay on DU-145 prostate, > 30.9 µM; in the assay with MCF7 breast, > 48.6 µM. Further, the TGI with OVCAR-8 ovarian was > 70.9 µM; in the assay on HCT-15 colon, > 100 µM; in the assay on RXF 393 renal, > 94.9 µM; in the assay with SF-295 CNS it was > 33.7 µM.

As to `CCOc1ccccc1NC(=O)c1cc2ccccc2cc1O`, the GI50 is 2.04 µM in the assay with RPMI-8226 leukemia; 4 µM with HCC-2998 colon; 2.88 µM in the assay with HCT-116 colon; 3.28 µM in the assay with K-562 leukemia; 3.71 µM in the assay with DU-145 prostate; 2.49 µM in the assay on MCF7 breast. In addition, the GI50 in the assay on OVCAR-8 ovarian was 3.16 µM; in the assay on HCT-15 colon it was 3.27 µM; with RXF 393 renal, 2.63 µM; with SF-295 CNS, 2.84 µM. Besides, the TGI with RPMI-8226 leukemia was determined as 6.56 µM; with HCC-2998 colon, 15.6 µM; in the assay with HCT-116 colon it was 8.02 µM; in the assay on K-562 leukemia, 14.1 µM; in the assay with DU-145 prostate it was 14.5 µM; with MCF7 breast it was 13.1 µM. Moreover, the TGI in the assay with OVCAR-8 ovarian was determined as 11.3 µM; in the assay on HCT-15 colon, 15.6 µM; with RXF 393 renal it was 7.62 µM; with SF-295 CNS, 9.46 µM.

For the compound `N=C(N)c1ccc(OCCOCCOc2ccc(C(=N)N)cc2)cc1`, the GI50 in the assay with RPMI-8226 leukemia was 68.5 µM; with HCC-2998 colon, > 100 µM; in the assay with HCT-116 colon it was > 100 µM; in the assay with K-562 leukemia, 63.3 µM; with DU-145 prostate, 96.1 µM; with MCF7 breast, 89.1 µM. The GI50 with OVCAR-8 ovarian is 31.4 µM; in the assay with HCT-15 colon it was 84.1 µM; in the assay on RXF 393 renal, > 100 µM; with SF-295 CNS it was 44.7 µM. Further, the TGI in the assay on RPMI-8226 leukemia, in the assay with HCC-2998 colon, in the assay with HCT-116 colon, with K-562 leukemia, in the assay with DU-145 prostate and in the assay with MCF7 breast was > 100 µM each time. Moreover, the TGI in the assay on OVCAR-8 ovarian, with HCT-15 colon, in the assay on RXF 393 renal and in the assay on SF-295 CNS was > 100 µM each time.

Consider `CCCCCc1nc2c(c3c1CCCC3)CCCC2`, for which the GI50 is 3.39 µM in the assay with RPMI-8226 leukemia; 10.2 µM in the assay on HCC-2998 colon; 3.01 µM with HCT-116 colon; 4.76 µM with K-562 leukemia; 23.2 µM with DU-145 prostate; 5.28 µM in the assay on MCF7 breast. Also, the GI50 with OVCAR-8 ovarian was 10.1 µM; in the assay on HCT-15 colon it was 8.94 µM; in the assay on RXF 393 renal it was 13.1 µM; in the assay on SF-295 CNS, 4.58 µM. For the same compound, the TGI in the assay on RPMI-8226 leukemia was 16.4 µM; in the assay on HCC-2998 colon, 29.5 µM; in the assay with HCT-116 colon, 15.2 µM; with K-562 leukemia, 27.9 µM; in the assay on DU-145 prostate, > 100 µM; in the assay on MCF7 breast, 21.2 µM. Also, the TGI with OVCAR-8 ovarian was 36.9 µM; with HCT-15 colon, 26.8 µM; in the assay with RXF 393 renal, 27.3 µM; in the assay with SF-295 CNS it was 20.9 µM.

On to `CC(=O)CCc1ccc(OC2OC(COC(=O)c3cc(O)c(O)c(O)c3)C(O)C(O)C2OC(=O)/C=C/c2ccccc2)cc1` (stereo not given), for which the GI50 with RPMI-8226 leukemia is 23.7 µM; with HCC-2998 colon, 15.3 µM; in the assay with HCT-116 colon, 15.1 µM; in the assay on K-562 leukemia it was 22.6 µM; in the assay with DU-145 prostate it was 23.5 µM; in the assay on MCF7 breast, 22.7 µM. For the same compound, the GI50 in the assay with OVCAR-8 ovarian is 21.2 µM; with HCT-15 colon, 26.2 µM; with RXF 393 renal it was 19 µM; with SF-295 CNS, 24.5 µM. Further, the TGI in the assay on RPMI-8226 leukemia is 85.3 µM; in the assay on HCC-2998 colon, 30.2 µM; with HCT-116 colon, 29.9 µM; in the assay on K-562 leukemia, 65.5 µM; in the assay on DU-145 prostate it was 42.8 µM; in the assay on MCF7 breast it was 47.1 µM. Further, the TGI is 55 µM in the assay on OVCAR-8 ovarian, > 100 µM in the assay with HCT-15 colon, 47.2 µM with RXF 393 renal and 52.2 µM in the assay with SF-295 CNS.

`CN(Cc1ccc(Cl)cc1)c1ccc(CO)c(Cl)c1`: the GI50 with RPMI-8226 leukemia was 5.51 µM; in the assay on HCC-2998 colon, 9.36 µM; with HCT-116 colon it was 0.445 µM; with K-562 leukemia it was 3.79 µM; with DU-145 prostate it was 10.8 µM; in the assay on MCF7 breast, 1.34 µM. Also, the GI50 in the assay on OVCAR-8 ovarian is 7.05 µM; with HCT-15 colon it was 5.42 µM; in the assay with RXF 393 renal, 3.57 µM; in the assay on SF-295 CNS, 2.48 µM. Also, the TGI with RPMI-8226 leukemia is > 52.3 µM; in the assay on HCC-2998 colon, 22.1 µM; in the assay on HCT-116 colon, 8.75 µM; with K-562 leukemia, > 65.7 µM; in the assay with DU-145 prostate, 25.5 µM; in the assay with MCF7 breast, 12.5 µM. Further, the TGI in the assay with OVCAR-8 ovarian amounted to 27.4 µM; in the assay on HCT-15 colon, 39.5 µM; in the assay with RXF 393 renal it was 16.8 µM; with SF-295 CNS, 16 µM.

With `Cc1cc2cc3cc(C)c(N(C)C)cc3[n+](C)c2cc1N(C)C`, the GI50 with RPMI-8226 leukemia was 4.54 µM; in the assay on HCC-2998 colon, 3.45 µM; in the assay with HCT-116 colon, 2.55 µM; in the assay on K-562 leukemia, 3.14 µM; in the assay on DU-145 prostate, 4.87 µM; in the assay on MCF7 breast, 2.38 µM. The GI50 in the assay on OVCAR-8 ovarian was 2.72 µM; in the assay on HCT-15 colon it was 4.52 µM; with RXF 393 renal, 6.09 µM; in the assay on SF-295 CNS, 2.53 µM. In addition, the TGI in the assay on RPMI-8226 leukemia is > 100 µM; with HCC-2998 colon, 16.7 µM; in the assay on HCT-116 colon, 20.7 µM; in the assay on K-562 leukemia, > 100 µM; with DU-145 prostate, 31.9 µM; with MCF7 breast it was > 100 µM. Also, the TGI stood at 14.7 µM with OVCAR-8 ovarian, 72.8 µM with HCT-15 colon, 23.4 µM with RXF 393 renal and 14 µM with SF-295 CNS.

Take `O=C1CC(c2cccc(O)c2)C2(C(=O)NC(=S)NC2=O)C(c2cccc(O)c2)C1` (stereo not given): the GI50 with RPMI-8226 leukemia, in the assay on HCC-2998 colon, in the assay with HCT-116 colon, with K-562 leukemia, in the assay on DU-145 prostate and in the assay on MCF7 breast was > 100 µM each time. For the same compound, the GI50 in the assay with OVCAR-8 ovarian, in the assay on HCT-15 colon, in the assay on RXF 393 renal and in the assay with SF-295 CNS was > 100 µM each time. In addition, the TGI with RPMI-8226 leukemia, with HCC-2998 colon, in the assay on HCT-116 colon, in the assay on K-562 leukemia, in the assay on DU-145 prostate and with MCF7 breast was > 100 µM each time. Also, the TGI in the assay on OVCAR-8 ovarian, with HCT-15 colon, in the assay on RXF 393 renal and with SF-295 CNS was > 100 µM in each case.
